Values after ≈ are worked out from the molar mass of the structure shown. Active and inactive are the calls of the source. No cut-off for these calls is given here. Numbered stars: 1 amine (or outer) side, 2 acyl side, 3 side chain; on linkers, the order of the positions; unused ones are H or OH. Square brackets hold non-standard residues; d marks the D form. Peptide text beside a SMILES is read from it. * marks the point of attachment. X3 = CC(C)C[C@@H](CN(CC(N)=O)S(=O)(=O)c1ccc(C(F)(F)F)cc1)N*; X2 = CC(C)C[C@H](N)CN(CC(=O)[*:2])[*:1]; X1 = O=S(=O)(c1ccc(C(F)(F)F)cc1)*
Assays:
Pseudomonas aeruginosa [1] = test: Antimicrobial activity against multidrug-resistant Pseudomonas aeruginosa 156 assessed as inhibition of visible bacterial growth incubated for 18 hrs by broth-dilution method; assay type: functional
Staphylococcus aureus [2] = test: Antimicrobial activity against Staphylococcus aureus ATCC 25923 assessed as fold increase in MIC in presence of human serum; assay type: functional
Pseudomonas aeruginosa [3] = test: Induction of intracellular ROS accumulation in Pseudomonas aeruginosa ATCC 27853 by DCFH-DA dye based fluorescence assay; assay type: functional, organism-based
Pseudomonas aeruginosa [4] = test: Antimicrobial activity against multidrug-resistant Pseudomonas aeruginosa 085 assessed as inhibition of visible bacterial growth incubated for 18 hrs by broth-dilution method; assay type: functional
Erythrocyte = test: Hemolytic activity against mouse Red blood cell incubated for 1 hr; assay type: toxicity, cell-based
Pseudomonas aeruginosa [5] = test: Antimicrobial activity against Pseudomonas aeruginosa ATCC 27853 assessed as reduction in microbial growth in presence of human serum; assay type: functional
Staphylococcus aureus [6] = test: Antimicrobial activity against methicillin-resistant Staphylococcus aureus 8 assessed as inhibition of visible bacterial growth incubated for 18 hrs by broth-dilution method; assay type: functional
Staphylococcus aureus [7] = test: Antimicrobial activity against Staphylococcus aureus ATCC 25923 assessed as fold change in MIC in presence of salt solution; assay type: functional
Staphylococcus aureus [8] = test: Antibiofilm activity against methicillin-resistant Staphylococcus aureus ATCC 33591 assessed as inhibition of biofilm formation at 4 to 8 microg/ml incubated for 24 hrs by crystal violet staining based analysis; assay type: functional; conditions: dose 4-8 µg/ml, at 4 to 8 µg/mL
Staphylococcus aureus [9] = test: Antimicrobial activity against methicillin-resistant Staphylococcus aureus 2 assessed as inhibition of visible bacterial growth incubated for 18 hrs by broth-dilution method; assay type: functional
Staphylococcus aureus [10] = test: Antimicrobial activity against methicillin-resistant Staphylococcus aureus 4 assessed as inhibition of visible bacterial growth incubated for 18 hrs by broth-dilution method; assay type: functional
Staphylococcus aureus [11] = test: Antibiofilm activity against methicillin-resistant Staphylococcus aureus ATCC 33591 assessed as biofilm eradication at 4 times MIC incubated for 2 to 4 hrs by crystal violet staining based assay; assay type: functional, organism-based; conditions: time 2-4 hrs
Staphylococcus aureus [12] = test: Antibiofilm activity against methicillin-resistant Staphylococcus aureus ATCC 33591 assessed as biofilm eradication at 4 times MIC incubated for 2 hrs by crystal violet staining based assay; assay type: functional, organism-based
Pseudomonas aeruginosa [13] = test: Antimicrobial activity against multidrug-resistant Pseudomonas aeruginosa 061 assessed as inhibition of visible bacterial growth incubated for 18 hrs by broth-dilution method; assay type: functional
Pseudomonas aeruginosa [14] = test: Bactericidal activity against Pseudomonas aeruginosa ATCC 27853 at 2 to 4 times MIC; assay type: functional, organism-based
Pseudomonas aeruginosa [15] = test: Antimicrobial activity against multidrug-resistant Pseudomonas aeruginosa 073 assessed as inhibition of visible bacterial growth incubated for 18 hrs by broth-dilution method; assay type: functional
Pseudomonas aeruginosa [16] = test: Synergistic antibacterial activity against Pseudomonas […] assessed as fractional inhibitory concentration index in presence of polymyxin B by checkerboard assay; assay type: functional
Pseudomonas aeruginosa [17] = test: Antibacterial activity against drug-susceptible Pseudomonas aeruginosa […] assessed as reduction in microbial growth; assay type: functional
Pseudomonas aeruginosa [18] = test: Antibiofilm activity against Pseudomonas aeruginosa ATCC 27853 assessed as biofilm thickness at 1 times MIC90 incubated for 24 hrs by confocal laser scanning microscopic analysis; assay type: functional
Pseudomonas aeruginosa [19] = test: Antimicrobial activity against multidrug-resistant Pseudomonas aeruginosa 157 assessed as inhibition of visible bacterial growth incubated for 18 hrs by broth-dilution method; assay type: functional
Staphylococcus aureus [20] = test: Antibiofilm activity against methicillin-resistant Staphylococcus aureus ATCC 33591 assessed as biofilm thickness at 1 times MIC90 incubated for 24 hrs by confocal laser scanning microscopic analysis; assay type: functional
Staphylococcus aureus [21] = test: Antimicrobial activity against methicillin-resistant Staphylococcus aureus 7 assessed as inhibition of visible bacterial growth incubated for 18 hrs by broth-dilution method; assay type: functional
Pseudomonas aeruginosa [22] = test: Antimicrobial activity against Pseudomonas aeruginosa ATCC 27853 at 1 times MIC incubated for 18 hrs in presence of LPS/LTA; assay type: functional, organism-based
Staphylococcus aureus [23] = test: Antimicrobial activity against Staphylococcus aureus ATCC 25923 assessed as reduction in bacterial growth in presence of human serum; assay type: functional
Pseudomonas aeruginosa [24] = test: Bactericidal activity against Pseudomonas aeruginosa ATCC 27853 at 1 to 4 times MIC by time-kill assay; assay type: functional, organism-based
Escherichia coli = test: Antimicrobial activity against Escherichia coli ATCC 25922 assessed as inhibition of visible bacterial growth incubated for 18 hrs by broth-dilution method; assay type: functional
Pseudomonas aeruginosa [25] = test: Antibiofilm activity against Pseudomonas aeruginosa ATCC 27853 assessed as biofilm eradication at 4 times MIC incubated for 1 hr by crystal violet staining based assay; assay type: functional, organism-based
Staphylococcus aureus [26] = test: Antibacterial activity against drug-susceptible Staphylococcus aureus ATCC 33591 assessed as reduction in microbial growth; assay type: functional
Pseudomonas aeruginosa [27] = test: Bactericidal activity against Pseudomonas aeruginosa ATCC 27853 assessed as reduction in viable bacteria at 4 times MIC measured for 5 min by time-kill assay; assay type: functional, organism-based
Pseudomonas aeruginosa [28] = test: Antibiofilm activity against Pseudomonas aeruginosa ATCC 27853 assessed as inhibition of biofilm formation at 4 to 8 microg/ml incubated for 24 hrs by crystal violet staining based analysis; assay type: functional; conditions: dose 4-8 µg/ml, at 4 to 8 µg/mL
Pseudomonas aeruginosa [29] = test: Antimicrobial activity against Pseudomonas aeruginosa ATCC 27853 assessed as fold increase in MIC in presence of human serum; assay type: functional
Salmonella typhimurium = test: Antimicrobial activity against Salmonella typhimurium ATCC 14028 assessed as inhibition of visible bacterial growth incubated for 18 hrs by broth-dilution method; assay type: functional, Salmonella enterica subsp. enterica serovar Typhimurium; conditions: Salmonella enterica
Staphylococcus aureus [30] = test: Antibiofilm activity against methicillin-resistant Staphylococcus aureus ATCC 33591 assessed as biofilm thickness at 2 times MIC90 incubated for 24 hrs by confocal laser scanning microscopic analysis; assay type: functional
Bacillus subtilis = test: Antimicrobial activity against Bacillus subtilis ATCC 23857 assessed as inhibition of visible bacterial growth incubated for 18 hrs by broth-dilution method; assay type: functional
Pseudomonas aeruginosa [31] = test: Antimicrobial activity against multidrug-resistant Pseudomonas aeruginosa 124 assessed as inhibition of visible bacterial growth incubated for 18 hrs by broth-dilution method; assay type: functional
Pseudomonas aeruginosa [32] = test: Antimicrobial activity against multidrug-resistant Pseudomonas aeruginosa 119 assessed as inhibition of visible bacterial growth incubated for 18 hrs by broth-dilution method; assay type: functional
Pseudomonas aeruginosa [33] = test: Antimicrobial activity against Pseudomonas aeruginosa ATCC 27853 assessed as inhibition of visible bacterial growth incubated for 18 hrs by broth-dilution method; assay type: functional
Cell membrane = test: Disruption of membrane integrity in Staphylococcus aureus ATCC 33591 incubated for 30 mins by PI staining based CLSM analysis; assay type: cell membranes
Staphylococcus aureus [34] = test: Antimicrobial activity against Staphylococcus aureus ATCC 33591 at 1 times MIC incubated for 18 hrs in presence of LPS/LTA; assay type: functional, organism-based
Staphylococcus aureus [35] = test: Bactericidal activity against Staphylococcus aureus ATCC 33591 at 2 to 4 times MIC; assay type: functional, organism-based
Staphylococcus aureus [36] = test: Antimicrobial activity against methicillin-resistant Staphylococcus aureus 10 assessed as inhibition of visible bacterial growth incubated for 18 hrs by broth-dilution method; assay type: functional
Pseudomonas aeruginosa [37] = test: Antimicrobial activity against multidrug-resistant Pseudomonas aeruginosa 050 assessed as inhibition of visible bacterial growth incubated for 18 hrs by broth-dilution method; assay type: functional
Pseudomonas aeruginosa [38] = test: Antimicrobial activity against multidrug-resistant Pseudomonas aeruginosa 125 assessed as inhibition of visible bacterial growth incubated for 18 hrs by broth-dilution method; assay type: functional
Staphylococcus aureus [39] = test: Antimicrobial activity against methicillin-resistant Staphylococcus aureus 3 assessed as inhibition of visible bacterial growth incubated for 18 hrs by broth-dilution method; assay type: functional

SMILES: CC(C)C[C@@H](CN(CC(N)=O)S(=O)(=O)c1ccc(C(F)(F)F)cc1)NC(=O)[C@H](CCCCN)NC(=O)[C@H](CCCCN)NC(=O)[C@H](CC(C)C)NC(=O)[C@H](CC(C)C)NC(=O)[C@H](CCCCN)NC(=O)[C@H](CC(C)C)NC(=O)[C@@H](N)Cc1ccccc1 (H-FLKLLKK-X3)
- MIC (Pseudomonas aeruginosa [1]): 16 µg/mL (≈ 12.8 µM)
- fold change (FC) (Staphylococcus aureus [2]): 2
- Activity (Pseudomonas aeruginosa [3]): Active
- MIC (Pseudomonas aeruginosa [4]): 16 µg/mL (≈ 12.8 µM)
- MHC (Erythrocyte): 256 µg/mL
- MIC (Pseudomonas aeruginosa [5]): 8 µg/mL
- MIC (Staphylococcus aureus [6]): 4 µg/mL (≈ 3.19 µM)
- fold change (FC) (Staphylococcus aureus [7]): 0.25
- inhibition (INH) (Staphylococcus aureus [8]): 50%
- MIC (Staphylococcus aureus [9]): 4 µg/mL (≈ 3.19 µM)
- MIC (Staphylococcus aureus [10]): 8 µg/mL (≈ 6.39 µM)
- Activity (Staphylococcus aureus [11]): Active
- Activity (Staphylococcus aureus [12]): Active
- MIC (Pseudomonas aeruginosa [13]): 8 µg/mL (≈ 6.39 µM)
- Activity (Pseudomonas aeruginosa [14]): Active
- MIC (Pseudomonas aeruginosa [15]): 16 µg/mL (≈ 12.8 µM)
- fractional inhibitory concentration index (FICI) (Pseudomonas aeruginosa [16]): 0.75
- MIC (Pseudomonas aeruginosa [17]): 4 µg/mL
- Activity (Pseudomonas aeruginosa [18]): 40 um
- MIC (Pseudomonas aeruginosa [19]): 8 µg/mL (≈ 6.39 µM)
- Activity (Staphylococcus aureus [20]): 40 um
- MIC (Staphylococcus aureus [21]): 8 µg/mL (≈ 6.39 µM)
- Activity (Pseudomonas aeruginosa [22]): inactive
- MIC (Staphylococcus aureus [23]): 8 µg/mL
- Activity (Pseudomonas aeruginosa [24]): Active
- MIC (Escherichia coli): 16 µg/mL (≈ 12.8 µM)
- Activity (Pseudomonas aeruginosa [25]): Active
- MIC (Staphylococcus aureus [26]): 4 µg/mL
- Activity (Pseudomonas aeruginosa [27]): Active
- inhibition (INH) (Pseudomonas aeruginosa [28]): 50%
- fold change (FC) (Pseudomonas aeruginosa [29]): 2
- MIC (Salmonella typhimurium): 16 µg/mL (≈ 12.8 µM)
- Activity (Staphylococcus aureus [30]): 20 um
- MIC (Bacillus subtilis): 4 µg/mL (≈ 3.19 µM)
- MIC (Pseudomonas aeruginosa [31]): 8 µg/mL (≈ 6.39 µM)
- MIC (Pseudomonas aeruginosa [32]): 8 µg/mL (≈ 6.39 µM)
- MIC (Pseudomonas aeruginosa [33]): 8 µg/mL (≈ 6.39 µM)
- Activity (Cell membrane): Active
- Activity (Staphylococcus aureus [34]): inactive
- Activity (Staphylococcus aureus [35]): Active
- MIC (Staphylococcus aureus [36]): 8 µg/mL (≈ 6.39 µM)
- MIC (Pseudomonas aeruginosa [37]): 16 µg/mL (≈ 12.8 µM)
- MIC (Pseudomonas aeruginosa [38]): 16 µg/mL (≈ 12.8 µM)
- MIC (Staphylococcus aureus [39]): 4 µg/mL (≈ 3.19 µM)

SMILES: CC(C)C[C@H](N)CN(CC(=O)N[C@@H](CCCCN)C(=O)N[C@@H](CC(C)C)C(=O)N[C@@H](CC(C)C)C(=O)N[C@@H](CCCCN)C(=O)N[C@@H](CCCCN)C(=O)N[C@@H](CC(C)C)C(=O)N[C@@H](CC(C)C)C(N)=O)S(=O)(=O)c1ccc(C(F)(F)F)cc1 (X1-[X2]KLLKKLL-NH2)
- MIC (Pseudomonas aeruginosa [1]): 4 µg/mL (≈ 3.28 µM)
- fold change (FC) (Staphylococcus aureus [2]): 2
- Activity (Pseudomonas aeruginosa [3]): Active
- MIC (Pseudomonas aeruginosa [4]): 8 µg/mL (≈ 6.56 µM)
- MHC (Erythrocyte): 256 µg/mL
- MIC (Pseudomonas aeruginosa [5]): 8 µg/mL
- MIC (Staphylococcus aureus [6]): 4 µg/mL (≈ 3.28 µM)
- fold change (FC) (Staphylococcus aureus [7]): 0.25
- inhibition (INH) (Staphylococcus aureus [8]): 50%
- MIC (Staphylococcus aureus [9]): 4 µg/mL (≈ 3.28 µM)
- MIC (Staphylococcus aureus [10]): 4 µg/mL (≈ 3.28 µM)
- Activity (Staphylococcus aureus [11]): Active
- Activity (Staphylococcus aureus [12]): Active
- MIC (Pseudomonas aeruginosa [13]): 8 µg/mL (≈ 6.56 µM)
- Activity (Pseudomonas aeruginosa [14]): Active
- MIC (Pseudomonas aeruginosa [15]): 8 µg/mL (≈ 6.56 µM)
- fractional inhibitory concentration index (FICI) (Pseudomonas aeruginosa [16]): 0.5
- MIC (Pseudomonas aeruginosa [17]): 4 µg/mL
- Activity (Pseudomonas aeruginosa [18]): 40 um
- MIC (Pseudomonas aeruginosa [19]): 4 µg/mL (≈ 3.28 µM)
- Activity (Staphylococcus aureus [20]): 40 um
- MIC (Staphylococcus aureus [21]): 4 µg/mL (≈ 3.28 µM)
- Activity (Pseudomonas aeruginosa [22]): inactive
- MIC (Staphylococcus aureus [23]): 8 µg/mL
- Activity (Pseudomonas aeruginosa [24]): Active
- MIC (Escherichia coli): 16 µg/mL (≈ 13.1 µM)
- Activity (Pseudomonas aeruginosa [25]): Active
- MIC (Staphylococcus aureus [26]): 4 µg/mL
- Activity (Pseudomonas aeruginosa [27]): Active
- inhibition (INH) (Pseudomonas aeruginosa [28]): 50%
- fold change (FC) (Pseudomonas aeruginosa [29]): 2
- MIC (Salmonella typhimurium): 8 µg/mL (≈ 6.56 µM)
- Activity (Staphylococcus aureus [30]): 20 um
- MIC (Bacillus subtilis): 4 µg/mL (≈ 3.28 µM)
- MIC (Pseudomonas aeruginosa [31]): 4 µg/mL (≈ 3.28 µM)
- MIC (Pseudomonas aeruginosa [32]): 8 µg/mL (≈ 6.56 µM)
- MIC (Pseudomonas aeruginosa [33]): 4 µg/mL (≈ 3.28 µM)
- Activity (Cell membrane): Active
- Activity (Staphylococcus aureus [34]): inactive
- Activity (Staphylococcus aureus [35]): Active
- MIC (Staphylococcus aureus [36]): 8 µg/mL (≈ 6.56 µM)
- MIC (Pseudomonas aeruginosa [37]): 4 µg/mL (≈ 3.28 µM)
- MIC (Pseudomonas aeruginosa [38]): 8 µg/mL (≈ 6.56 µM)
- MIC (Staphylococcus aureus [39]): 4 µg/mL (≈ 3.28 µM)

Source: ChEMBL document CHEMBL5537135, “Novel antimicrobial peptides modified with fluorinated sulfono-γ-AA having high stability and targeting multidrug-resistant bacteria infections” (Eur J Med Chem, 2024)
